Patent US8044018B2, “Reagents and methods for smooth muscle therapies” (Arizona Board of Regents, priority 2008, dated 2011)

How the values were obtained:
porcine coronary artery = experiment: Muscle bath: serotonin pre-contracted rings of porcine coronary artery, endothelium not denuded; conditions: cumulative doses added every 10 minutes; n=5; FIG. 4
Method: Rings of porcine coronary artery in which the endothelium was not denuded, were suspended in a muscle bath containing bicarbonate buffer (120 mM NaCl, 4.7 mM KCl, 1.0 mM MgSO4, 1.0 mM NaH2PO4, 10 mM glucose, 1.5 mM CaCl2, and 25 mM […], pH 7.4), equilibrated with 95% O2/5% CO2, at 37° C. at one gram of tension for 2 hours. The muscles were pre-contracted with serotonin ([…] for 10 minutes) and cumulative doses of PTD-pHSP20 (NH2-βAYARRAAARQARAWLRRAS*APLPGLK-COOH, closed circles) (SEQ ID NO:307) or PTD-scrambled-pHSP20 (NH2-βAYARRAAARQARAPRKS*LWALGRPLA-COOH open circles) (SEQ ID NO:308) were added every 10 minutes (FIG. 4). The percentage of relaxation is depicted as a percentage of the maximal serotonin contraction (n=5, *=p<0.05 compared to 0 peptide added). The concentrations of peptide used are depicted on the x axis. Representative rings were treated with peptides (1 mM final concentration) linked to FITC (15 minutes at 37° C.), fixed in 4% paraformaldehyde and examined under fluorescence microscopy (40× magnification).

[1] = system: internal anal sphincter smooth muscles; experiment: Muscle bath: human internal anal sphincter, tonic sustained contractions; conditions: 1 mM final concentration; after washout of sodium nitroprusside
Source text: The internal anal sphincter was obtained from a human pathology specimen after an abdominal perineal resection for cancer. The smooth muscles were equilibrated in a muscle bath as described in example 6. The muscles developed tonic sustained contractions when warmed in the bicarbonate buffer. These contractions relaxed with the addition of the guanylate cyclase activator, sodium nitroprusside (SNP). When the sodium nitroprusside was washed out of the bath, the muscles again contracted spontaneously. The muscles were then treated with the PTD-phosphopeptide analogues of HSP20 (NH2-βAYARRAAARQARAWLRRAS*APLPGLK-COOH, 1 mM final concentration) (SEQ ID NO:307).

[2] = system: Intestinal smooth muscle from the tinea coli; experiment: Muscle bath: pig tinea coli, contractile response to carbachol; conditions: peptide in a dextran gel, 1 mM final concentration; then treated with carbachol
Method: Intestinal smooth muscle was obtained from the tinea coli of a pig. These muscles were equilibrated in a muscle bath as described in example 6. The muscles produced transient contractions in response to high extracellular potassium chloride (KCl 110 mM) and in response to carbachol (10^−6 M). The muscles were then treated with a dextran gel containing the PTD-phosphopeptide analogues of HSP20 (NH2-βAYARRAAARQARAWLRRAS*APLPGLK-COOH, 1 mM final concentration) (SEQ ID NO:307) and treated with carbachol.

Tracheal smooth muscles = experiment: Muscle bath: rabbit tracheal smooth muscle pre-contracted with carbachol; design: species or system New Zealand White rabbits
Method: (§1) Tracheal and corpra cavernosal smooth muscles were obtained from a New Zealand White rabbits after sacrifice. The muscles were equilibrated in a muscle bath as described in example 6. The tracheal muscles were pre-contracted with carbachol and the corpra cavernosal smooth muscles were pre-contracted with norepinephrine. The muscles were then treated with the PTD-phosphopeptide analogues of HSP20 (NH2-βAYARRAAARQARAWLRRAS*APLPGLK-COOH) (SEQ ID NO:307).

[3] = system: corpra cavernosal smooth muscles; experiment: Muscle bath: rabbit corpra cavernosal smooth muscle pre-contracted with norepinephrine; design: species or system New Zealand White rabbits
Method: as §1

[4] = system: Human saphenous vein smooth muscles; experiment: Muscle bath: human saphenous vein rings, contraction in response to serotonin; conditions: peptide in 7.5% dextran gel; serotonin 1 uM
Method: Human saphenous vein was obtained from remnants that were discarded after vascular bypass operations. Rings of the saphenous vein were equilibrated in a muscle bath as described in experiment 4. The rings were treated with a 7.5% dextran gel alone, or a 7.5% dextran gel containing the phosphopeptide analogues of HSP20 (NH2-βAYARRAAARQARAWLRRAS*APLPGLK-COOH) (SEQ ID NO:307). The rings were then treated with serotonin (1 uM). The rings treated with the 7.5% dextran gel alone contracted in response to serotonin.

[5] = system: Bovine aortic endothelial cells; experiment: Focal adhesion disassembly, interference reflection microscopy; format: cell-based; conditions: HSP20 peptides 10 uM for 30 minutes; serum starved one hour
Method: Bovine aortic endothelial cells were plated on glass coverslips (80K-100K cells) in DMEM plus 10% FBS over night (24 wells plate). The cells were serum starved (no serum) for one hour and incubated in the presence of the peptide analogues of HSP20 [NH2-βAYARRAAARQARAWLRRAS*APLPGLK-COOH-pHSP20 (10 uM) (SEQ ID NO:307) or scrambled analogues of HSP20 [NH2-βAYARRAAARQARAPRKS*LWALGRPLA-COOH-scHSP20 (10 uM)] (SEQ ID NO:308) for 30 minutes. The cells were fixed with 3% glutaraldehyde and the number of focal adhesions was detected with interference reflection microscopy. The Hep I peptide was used as a positive control. This peptide binds to the heparin binding site of thrombospondin in induces focal adhesion disassembly. […] The results are illustrated in FIG. 7.

A10 cells [6] = experiment: Scratch wound migration assay; format: cell-based; conditions: 50 μM; 10% FBS media; 24 hours
Method: Confluent A10 cells were serum starved (0.5% fetal bovine serum, FBS) for 48 hours. A linear wound was made in the smooth muscle cell monolayer using a rubber scraper and the scratched edges were marked using metal pins.

A10 cells [7] = experiment: Boyden chamber migration assay; format: cell-based
A10 cells [8] = experiment: Serum-induced proliferation, cell counts; format: cell-based; conditions: 50 μM in 10% FBS; 24 hours; serum starved 3 days beforehand
Method: A10 cells were serum starved for 3 days. The cells were then treated with media containing 10% fetal bovine serum, PTD-pHSP20 (NH2-βAYARRAAARQARAWLRRAS*APLPGLK-COOH (SEQ ID NO:307), or PTD-scrambled-pHSP20 (NH2-βAYARRAAARQARAPRKS*LWALGRPLA-COOH (SEQ ID NO:308) (50 μM). After 24 hours cell counts were performed. The number of cells per well in the serum starved plates averaged […] (+/−7.4) compared to 276+/−6.1 in wells containing 10% fetal bovine serum (FBS). In the presence of FBS, the phosphopeptide analogues of HSP20 containing a transduction domain inhibited of smooth muscle proliferation, 149+/−14.6 compared to transduction of the scrambled phosphopeptide analogue of HSP20 (242.3+/−15.3 cells/well). The results of these experiments are illustrated in FIG. 9.

human saphenous vein = experiment: Intimal hyperplasia in cultured human saphenous vein segments, morphometric intimal area; conditions: 14 days; media with 30% fetal bovine serum; versus serum alone or scrambled analogue
Method: Segments of human saphenous vein were cultured in media containing 30% fetal bovine serum.

NH2-βAYARRAAARQARAWLRRAS*APLPGLK-COOH (AYARRAAARQARAWLRRASAPLPGLK; HELM PEPTIDE1{[bAla].Y.A.R.R.A.A.A.R.Q.A.R.A.W.L.R.R.A.[O=C([C@H](COP(=O)(O)O)N[*:1])[*:2]].A.P.L.P.G.L.K}$$$$V2.0; SMILES CC(C)C[C@H](NC(=O)CNC(=O)[C@@H]1CCCN1C(=O)[C@H](CC(C)C)NC(=O)[C@@H]1CCCN1C(=O)[C@H](C)NC(=O)[C@H](COP(=O)(O)O)NC(=O)[C@H](C)NC(=O)[C@H](CCCNC(=N)N)NC(=O)[C@H](CCCNC(=N)N)NC(=O)[C@H](CC(C)C)NC(=O)[C@H](Cc1c[nH]c2ccccc12)NC(=O)[C@H](C)NC(=O)[C@H](CCCNC(=N)N)NC(=O)[C@H](C)NC(=O)[C@H](CCC(N)=O)NC(=O)[C@H](CCCNC(=N)N)NC(=O)[C@H](C)NC(=O)[C@H](C)NC(=O)[C@H](C)NC(=O)[C@H](CCCNC(=N)N)NC(=O)[C@H](CCCNC(=N)N)NC(=O)[C@H](C)NC(=O)[C@H](Cc1ccc(O)cc1)NC(=O)CCN)C(=O)N[C@@H](CCCCN)C(=O)O) [PTD-pHSP20, Phosphopeptide analogue of HSP20 with a protein transduction domain different from TAT]
relaxation as percentage of the maximal serotonin contraction (porcine coronary artery): relax and prevent spasm | relaxation of spontaneous tonic contraction [1]: relaxed and spasm was prevented | contractile response to carbachol [2]: significantly attenuated | relaxation of pre-contracted muscle (Tracheal smooth muscles): relaxed and spasm was prevented | relaxation of pre-contracted muscle [3]: relaxed and spasm was prevented | contraction in response to serotonin [4]: did not contract | focal adhesion disassembly (number of focal adhesions) [5]: led to focal adhesion disassembly | number of cells migrating into a 1 cm^2 scratched area (A10 cells [6]): inhibition of migration | migration of A10 cells (A10 cells [7]): inhibition of migration | number of cells per well (A10 cells [8]): 149+/−14.6 cells/well | intimal area (human saphenous vein): significant reduction in intimal area
